Like-named read-outs stand apart in the source and are kept apart here.
Columns and labels:
[1] = system: HSV-2 (strain MS); assay: HSV-β-gal assay: transient expression of beta-galactosidase in transfected HeLa cells superinfected with HSV-2; assay type: cell-based; conditions: Human alphaherpesvirus 2, HeLa, 24 h, inhibition of beta-galactosidase expression, MOI 5 pfu/cell, read-out: ANTI-HSV ACTIVITY HSV-β-GAL ASSAY IC50
Method: HeLa and Vero cell cultures were maintained in Eagle's Minimal Essential Medium (EMEM) which was supplemented with glutamine, penicillin, streptomycin and 10% fetal calf serum (10% EMEM). Stock cultures of HSV-2 (strain MS available from ATCC VR-540) were grown in and harvested from Vero cells. Viral stocks were titered in Vero cells according to established procedures.
Plasmid pON 245^ori- contains the promoter of the HSV-1 thymidine kinase (tk) gene located immediately 5' of the E. coli lac Z gene. In this arrangement, the tk promoter controls transcription from the bacterial gene in transient expression assays. Additionally, an SV40 polyadenylation signal is present at the 3'-end of the lac Z gene to allow for the efficient translation of the mRNA in eucaryotic cells. The expression of beta-galactosidase in a transient assay using pON 245^ori- is dependent upon superinfection of the transfected cells with HSV. […] For example, see European Patent Application No. 8302149.5 filed Mar. 11, 1988 and published Sep. 14th 1988 as 282,330, the disclosure of which is incorporated herein by reference thereto.
HeLa cells were seeded into 96 well microtiter plates and allowed to grow to 80% confluency (approximately 35000 cells/well). One half microgram of plasmid pON 245^ori- DNA was introduced into the cells of each well by the […] precipitation technique (Grahman and Van der Eb, 1973). Four to six hours later, the cells were rinsed with Hank's Balanced Salt Solution (HBSS), overlaid with 10% EMEM and incubated at 37° C. At 24 hour post-transfection, cells were rinsed, overlaid with 10% EMEM again and re-incubated at 37° C. At 48 hours. post-transfection, cells were rinsed and overlaid with either EMEM containing 2% fetal calf serum (2% EMEM), 2% EM EM containing HSV-2 (strain MS, Multiplicity of Infection [moil =5 pfu/cell) or 2% EMEM containing HSV-2 and the appropriate concentration of the compound to be tested. Twenty-four hours later, the cells were harvested and assayed for beta-galactosidase activity as described below.
(§1) All determinations of beta-galactosidase activity were performed in 96 well microtiter plates. The intracellular level of beta-galactosidase activity in each well was determined from cell lysates of the monolayer cultures. Aliquots were assayed by incubation in the presence of beta-galactosiclasesubstrate, 4-methyl-umbelliferyl-β-D-galactoside (MUG, 125 μg/ml, Sigma), for 2 hour. The generation of fluorescent product was quantified on a Microfluor microfluorimeter (Dynatech) after addition of 0.1M glycine, pH 10.3 (Spaete and Mocarski, 1985). The inhibitory activity of a compound was plotted versus the concentration and an IC50 value (the concentration of compound required to reduce beta-galactosidase expression by 50%) was obtained for each compound tested.
Anti-HSV activity refers to the IC50 values in the HSV-β-gal assay which measures anti-viral activity in terms of inhibition of beta-galactosidase expression. The IC50 values refer to the concentration of the compound in micrograms/milliliter needed to reduce beta-galactosidase expression by 50%.

[2] = Compound toxicity assay: 3H-leucine incorporation (translational activity) in HeLa cells; assay type: cell-based; conditions: human, reduction of leucine incorporation, read-out: CYTOTOXICITY 3H-LEU ASSAY IC50
Method: HeLa cells were treated with inhibitory compound for 24 hours, after which levels of translational activity were assayed.
For assay of translational activity, HeLa cultures were grown to 80% confluency in 96 well microtiter plates, treated with appropriate concentrations of compound in 2% EMEM during an overnight incubation at 37° C., then rinsed with HBSS and overlaid with […] of 2% EMEM containing 8 μCi of tritiated leucine (141 Cμ/mMol, Amersham Corp., Arlington Heights Ill.). After a 1 hour incubation at 36.5° C., the cells were rinsed twice with phosphate buffered saline (PBS) and lysed in 400 μl/well of 1×PBS, 0.5% sodium dodecyl sulphate (SDS). After a 10 min incubation at 36.5° C., the contents of the well were transferred to a well in a Millititer HA microfiltration plate (Millipore Corp., Bedford, Mass.). The TCA-insoluble proteins were precipitated onto the filter disc by a 10-minute-fixation with 5% TCA, followed by filtration under vacuum and three 10-minute-rinses with 95% ethanol. The filters were dried at room temperature, cut from the millititer plate and transferred to scintillation vials. TCA precipitable counts were assayed in 5 ml of Scintisol (Isolab, Akron, Ohio). The inhibitory activity of a compound was plotted versus the concentration and an IC50 value (that concentration of the compound required to decrease cellular translational activity by 50%) was derived for each compound.
Cytotoxicity refers to the IC50 values in the 3H-leucine (3H-Leu) incorporation. The IC50 values in this test refer to the concentration of the compound in micrograms/milliliter which reduces leucine incorporation by 50%.

[3] = system: antiviral activity of lidocaine or lidocaine hydrochloride; conditions: added to lidocaine or lidocaine hydrochloride; Haines et al.; cited from earlier work
[4] = system: HSV-2, strain MS; assay: Prophylactic guinea pig model of HSV-2 infection; assay type: in vivo; conditions: test compounds 60 mg/kg s.c., T.I.D., 10 days, from 24 hours before infection; for MLS (Maximum Lesion Scores): scale of 1 (least) to 4 (severe), placebo 3; for NEUROLOGICAL DYSFUNCTIONS (percentage animals developing loss of bladder/hindlimb control): placebo 87
Method: The in vive assessment of anti-HSV efficacy was determined in the prophylactic guinea pig model of HSV infection described by Stansberry et al (1982). Dosing of guinea pigs comprised an initial treatment with test compound given 24 hours prior to virus infection and subsequent administration of the compound every eight hours (T.I.D.) for a total of 10 days. Test compounds were administered subcutaneously in 0.5% buffered methyl celluslose at a dose of 60 mg per kg body weight of the animal. Animals were monitored daily for the development of genital lesions and neurological symptomology, both of which were recorded and compared to the results obtained with parallel groups which received placebo or acyclovir treatment. Efficacy was evaluated for each compound by scoring the ability of the compound to ameliorate genital lesions produced by infection with HSV-2, strain MS, expressed as Maximum Lesion Scores (MLS) on a scale of 1 (least lesion) to 4 (severe lesions).

[5] = CMV toxicity assay: tritiated leucine (3H-Leu) assay in HFF cells; assay type: cell-based; conditions: HFF cells (human foreskin fibroblast); read-out: CYTOTOXICITY 3H-LEU ASSAY IC50
[6] = system: CMV (strain Towne); assay: CMV-β-Gal assay: beta-galactosidase transient expression assay with CMV; assay type: cell-based; conditions: Human betaherpesvirus 5, read-out: ANTI-CMV ACTIVITY CMV-β-Gal ASSAY IC50, CMV strain Towne
Method: as §1
Human foreskin fibroblast (HHF) cell cultures were grown in 10% EMEM. CMV (strain Towne received from Stanford University) was grown and titered in HHF cells. Plasmids pON 249 and pON 241 Δ NH3, containing CMV promoter genes, were used in the β-galactosidase transient expression assay as shown above.

| SMILES | IC50 ([1]; *Repeat) | IC50 ([1]; first value) | CC50 at 24 h ([2]; *Repeat) | CC50 at 24 h ([2]; first value) | enhancement of antiviral activity of lidocaine or lidocaine hydrochloride [3] | MLS (Maximum Lesion Scores) [4] | NEUROLOGICAL DYSFUNCTIONS (percentage animals developing loss of bladder/hindlimb control) [4] | CC50 [5] | IC50 ([6]; first value) | IC50 ([6]; second value marked * (repeat)) |
| --- | --- | --- | --- | --- | --- | --- | --- | --- | --- | --- |
| CC(=O)Oc1c(C(OC(C)=O)OC(C)=O)c(=O)n(Cc2ccccc2)c2ccc(OCc3ccccc3)cc12 [Formula 1.15] | 10 µg/mL | 10 µg/mL | 40 µg/mL | 29 µg/mL | – | – | – | – | – | – |
| CCC(=O)Oc1c(C(OC(=O)CC)OC(=O)CC)c(=O)n(C)c2ccccc12 [Formula 1.12] | 7 µg/mL | 8 µg/mL | 29 µg/mL | 29 µg/mL | – | – | – | – | – | – |
| CC(C)(CO)[C@@H](O)C(=O)NCCCO [dexpanthenol] | – | – | – | – | significantly enhances the antiviral activity | – | – | – | – | – |
| COc1ccc(OCCCOCn2c(=O)c(C(OC(C)=O)OC(C)=O)c(OC(C)=O)c3ccccc32)c(Cl)c1 [Formula 1.14] | – | 9 µg/mL | – | 30 µg/mL | – | 1.8 | 12% | 50 µg/mL | 16 µg/mL | 18 µg/mL |
| CC(=O)Oc1c(C(OC(C)=O)OC(C)=O)c(=O)n(C)c2ccccc12 [Formula 1.5] | 3 µg/mL | 4 µg/mL | 25 µg/mL | 25 µg/mL | – | 1.3 | 0% | – | – | – |
| Nc1nc2c(ncn2COCCO)c(=O)[nH]1 [Acyclovir, 9-[(2-hydroxyethoxy)methyl]guanine, reference compound] | – | – | – | – | – | 1.5 | 50% | – | – | – |
| COc1c(C(OC(C)=O)OC(C)=O)c(=O)n(Cc2ccccc2)c2ccc(C)cc12 [Formula 1.3] | – | 3 µg/mL | – | 2.7 µg/mL | – | 1.8 | 0% | – | – | – |
| CC(=O)Oc1c(C(OC(C)=O)OC(C)=O)c(=O)n(Cc2ccccc2)c2ccc(C)cc12 [Formula 1.10] | – | 7 µg/mL | – | 18 µg/mL | – | – | – | – | – | – |
| CC(=O)Oc1ccc2c(c1)c(OC(C)=O)c(C(OC(C)=O)OC(C)=O)c(=O)n2Cc1ccccc1 [Formula 1.2] | 2.5 µg/mL | 3 µg/mL | 3 µg/mL | 21.5 µg/mL | – | – | – | – | – | – |
| CC(=O)Oc1c(C(OC(C)=O)OC(C)=O)c(=O)n(Cc2ccccc2)c2ccccc12 [Formula 1.6] | 8 µg/mL | 4 µg/mL | 37 µg/mL | 32 µg/mL | – | – | – | 28 µg/mL | 7 µg/mL | 8 µg/mL |
| CCCCCCn1c(=O)c(C(OC)OC)c(OC)c2cc(C)ccc21 [Formula 1.17] | – | 5 µg/mL | – | 30 µg/mL | – | – | – | – | – | – |

Reference: patent publication US5382572A, “Alkyl and acyl substituted quinolines” (Schering Corporation, priority 1993, dated 1995)
